One test concerns the target MDM2 (Homo sapiens, UniProt Q00987). Put plainly: NMR-based binding assay, MDM2. On the procedure:
(§1) In one of its aspects, the present invention provides a method for generating and screening virtual libraries based on 40 different MCRs having the indole fragment. The inventive method comprises docking individual molecules from the virtual library into a high resolution structure of the MDM2 protein. Docking is carried out by maintaining the same positional constraints on the indole ring of the docked molecule to those for the indole side chain in the high resolution X-ray structure of MDM2-p53 peptide. The compounds identified from docking experiments as potential inhibitors of MDM2-p53 interaction are then synthesized and tested for the inhibitory activity using an NMR-based binding assay. […] A similar strategy was used to identify and select compounds that could potentially be used as inhibitors for disrupting MDM4-p53 interaction.
Such an NMR-based screen has many advantages. For example, this screening method allows for the rapid determination of an approximate KA for the small molecule inhibitors, with the possibility of obtaining a more accurate KA value at a later time by titrating the p53-MDM2 complex using increasing concentrations of the inhibitor of interest. A second advantage of using this technique is that it allows identification of the binding site of the small molecule in the target protein by investigating the chemical shift perturbations that occur on binding. This information can then be used to further refine the chemical scaffold with an aim towards improving the affinity of the molecule for its target. Finally, NMR-based screening yields valuable information about promiscuous inhibitors which act as false positives by precipitating the target protein through hydrophobic effects. This information is not available when classical screening approaches such as fluorescence polarization or ELISA type assays are used for screening.
The compounds identified using MCR were then screened for the ability to bind MDM2 or MDM4 (KA) (primary assay). The molecules identified as binders of MDM2 or MDM4 by the primary assay are subsequently tested for their ability to disrupt the MDM2/p53-peptide complex (KD) in a secondary assay. Based on the results from the primary and secondary assays, further downstream assays involving screening using various cell lines (PC3, A549, MDAMB231) and determination of the growth inhibition constants may be performed for a select sub-set of molecules. Western blot analysis of certain compounds is performed to determine p53, MDM2, and p21 content.

The next test relates to HCT116 cells. Put plainly: GI50 against HCT116 cells in culture. The following applies: Homo sapiens, HCT-116, imidazole scaffold, Table 2. Type of test: cell-based. The procedure:
A second approach for increasing affinity, entails introducing substituents in the 2-position of the imidazole ring to gain additional van der Waals interaction and even water solubility. A substituent in the 2-position would mimic the interactions of the Leu (FSDLWKLL) in p53, which contributes additional van der Waals interactions in addition to FWL. Optimization of compounds that belong to this family was carried out as shown in Scheme 1. Table 2 lists representative analogs that were synthesized with their GI50 values against HCT116 cells in culture. The chemistry to accomplish substitution at position-2 of the immidazole ring would involve generation of the carbanion using LDA and subsequent alkylation with iminium salts or other alkylating agents.

The target in a further test is T1, MDM4 (Homo sapiens, UniProt O15151).
T1 sequence (O15151 1-490): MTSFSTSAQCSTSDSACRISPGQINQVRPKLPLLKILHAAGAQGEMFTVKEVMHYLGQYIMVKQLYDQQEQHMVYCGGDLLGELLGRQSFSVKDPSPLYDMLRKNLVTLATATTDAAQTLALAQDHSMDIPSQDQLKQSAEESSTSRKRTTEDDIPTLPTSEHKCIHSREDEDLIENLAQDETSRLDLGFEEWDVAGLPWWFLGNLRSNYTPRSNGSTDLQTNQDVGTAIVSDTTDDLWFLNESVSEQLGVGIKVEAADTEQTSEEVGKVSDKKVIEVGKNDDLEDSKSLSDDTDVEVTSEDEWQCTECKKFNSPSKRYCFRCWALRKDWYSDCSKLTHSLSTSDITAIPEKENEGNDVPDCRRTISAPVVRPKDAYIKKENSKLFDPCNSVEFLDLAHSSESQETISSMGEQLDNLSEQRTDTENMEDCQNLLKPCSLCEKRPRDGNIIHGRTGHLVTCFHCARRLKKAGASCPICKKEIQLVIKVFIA
Put plainly: NMR-based binding assay, MDM4. The following applies: imidazolidine scaffold, Table 3. The procedure: as §1
The compounds identified using MCR were then screened for the ability to bind MDM2 or MDM4 (KA) (primary assay). The molecules identified as binders of MDM2 or MDM4 by the primary assay are subsequently tested for their ability to disrupt the MDM2/p53-peptide complex (KD) in a secondary assay. Based on the results from the primary and secondary assays, further downstream assays involving screening using various cell lines (PC3, A549, MDAMB231) and determination of the growth inhibition constants may be performed for a select sub-set of molecules. […]

[1] abbreviates: imidazolidine scaffold, Table 3.

These results are taken from patent US8163789B2, “Selective and dual-action p53/MDM2/MDM4 antagonists” (University of Pittsburgh—of the Commonwealth System of …, priority 2007, dated 2012).

The term Ki denotes a dissociation constant, usually derived from enzyme kinetics or from competition with a known ligand. Higher therefore signals lower affinity. Usually GI50 stands for the concentration that inhibits growth by half. Lower therefore signals more potent growth inhibition.

MDM2, sequence (Q00987 whole entry, the tested form may be a part): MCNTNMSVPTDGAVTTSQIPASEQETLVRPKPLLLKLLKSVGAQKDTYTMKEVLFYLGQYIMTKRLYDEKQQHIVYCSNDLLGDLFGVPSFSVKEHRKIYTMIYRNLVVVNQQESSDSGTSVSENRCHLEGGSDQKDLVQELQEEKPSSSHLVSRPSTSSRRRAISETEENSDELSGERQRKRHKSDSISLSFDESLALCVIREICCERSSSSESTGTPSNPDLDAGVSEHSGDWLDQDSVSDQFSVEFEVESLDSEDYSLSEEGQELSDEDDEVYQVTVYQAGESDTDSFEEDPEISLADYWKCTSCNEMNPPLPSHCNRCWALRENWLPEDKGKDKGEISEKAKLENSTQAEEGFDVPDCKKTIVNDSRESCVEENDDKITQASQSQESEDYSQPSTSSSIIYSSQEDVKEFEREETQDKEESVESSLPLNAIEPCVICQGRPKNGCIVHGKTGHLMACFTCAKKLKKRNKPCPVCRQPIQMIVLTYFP

For `COC(=O)C1(c2ccccc2)N=CN(C2CCNCC2)C1c1ccc(Cl)cc1` (stereo not shown), at MDM2 (setting [1]), the Ki is around 50 µM.

On MDM2 (setting [1]), `COC(=O)C1(c2ccccc2)N=CN(CC2CC2)C1c1ccc(Br)cc1` (stereo not shown) came in with an inhibition constant (Ki) of around 6 µM.

In the case of `Clc1ccc(-c2ncn(CC3CC3)c2-c2c[nH]c3ccccc23)cc1`, the GI50 in the test on HCT116 cells is around 35 µM.

In turn, `Fc1cc(Cl)ccc1-c1c(-c2ccc(Cl)cc2)ncn1Cc1ccccc1` returned a GI50 in the test on HCT116 cells of around 20 µM.

For `COC(=O)C1(c2ccccc2)N=CN(CC2CC2)C1c1cc2ccc(Cl)cc2[nH]1` (stereo not shown), the inhibition constant Ki on MDM2 (setting [1]) is around 40 µM.

Regarding `COC(=O)C1(c2ccccc2)N=CN(CC2CC2)C1c1ccc(Cl)cc1F` (stereo not shown) [drawing 45], the Ki on MDM2 (setting [1]) was around 2 µM.

`COC(=O)C1(c2ccccc2)N=CN(CC2CC2)C1c1ccc(Cl)cc1F` (stereo not shown) [drawing 58]: the Ki at MDM2 (setting [1]) was around 2 µM.

Consider `Clc1ccc(-c2ncn(CC3CC3)c2-c2c[nH]c3cc(Cl)ccc23)cc1`, for which the GI50 with HCT116 cells was around 40 µM.

Regarding `COC(=O)C1(c2ccccc2)N=CN(CC2CCCNC2)C1c1ccc(Cl)cc1` (stereo not shown), the Ki at MDM2 (setting [1]) is around 20 µM.

On to `COC(=O)C1(c2ccccc2)N=CN(C2CCCCC2)C1c1ccc(Cl)cc1` (stereo not shown), for which, on MDM2 (setting [1]), the Ki was around 20 µM.

For the molecule `O=C(O)C1(c2ccccc2)N=CN(CC2CC2)C1c1ccc(Cl)cc1` (stereo not shown), the inhibition constant Ki on MDM2 (setting [1]) was around 50 µM.

With `O=C(N1CCNCC1)C1(c2ccccc2)N=CN(CC2CC2)C1c1ccc(Cl)cc1` (stereo not shown), on MDM2 (setting [1]), the Ki is around 1 µM.

As to `O=C(NCCN1CCOCC1)C1(c2ccccc2)N=CN(CC2CC2)C1c1ccc(Cl)cc1` (stereo not shown), the affinity on MDM2 (setting [1]) corresponds to a Ki of 1 µM.

Take `CC(c1cccc2ccccc12)n1cnc(-c2ccc(Cl)cc2)c1-c1cc2ccc(Cl)cc2[nH]1` (stereo not shown): the GI50 in the test on HCT116 cells was around 5 µM.

In turn, `COC(=O)C1(c2ccccc2)N=CN(Cc2cccnc2)C1c1ccc(Cl)cc1` (stereo not shown) yielded a Ki on MDM2 (setting [1]) of around 5 µM.

For the molecule `C[C@@H](c1ccc(Cl)cc1)n1cnc(-c2ccc(Cl)cc2)c1-c1cc2ccc(Cl)cc2[nH]1`, the GI50 with HCT116 cells was around 20 µM.

`CC(c1ccc(Cl)cc1)n1cnc(-c2ccc(Cl)cc2)c1-c1cc2ccc(Cl)cc2[nH]1` (stereo not shown) had a GI50 with HCT116 cells of around 30 µM.

Regarding `CN(C)Cc1nc(-c2ccc(Cl)cc2)c(-c2ccc(Cl)cc2)n1CC1CC1`, the GI50 in the test with HCT116 cells was around 20 µM.

On to `COC(=O)C1(C)N=CN(CC2CC2)C1c1ccc(Cl)cc1` (stereo not shown), for which the Ki on MDM2 (setting [1]) is around 2 µM.

As to `CC(C)(C)OC(=O)n1cc(-c2c(-c3ccc(Cl)cc3)ncn2CC2CC2)c2ccc(Cl)cc21`, the GI50 in the test on HCT116 cells was around 50 µM.

On MDM2 (setting [1]), `COC(=O)C1(CC(C)C)N=CN(CC2CC2)C1c1ccc(Cl)cc1` (stereo not shown) yielded a Ki of around 1 µM.

As for `COC(=O)C1(c2ccccc2)N=CN(CC(C)C)C1c1ccc(Cl)cc1` (stereo not shown), the Ki on MDM2 (setting [1]) is around 10 µM.

Molecule `Clc1ccc2c(-c3c(-c4ccc5c(c4)OCO5)ncn3CC3CC3)c[nH]c2c1` came in with a 50% growth inhibitory concentration (GI50) in the test on HCT116 cells of around 1 µM.

Turning to `COC(=O)C1(c2ccc(Cl)cc2)N=CN(CC2CC2)C1c1cc2ccc(Cl)cc2[nH]1` (stereo not shown), the Ki at MDM2 (setting [1]) was around 50 µM.

`COC(=O)C1(c2ccccc2)N=CN(CC2CC2)C1c1c[nH]c2ccccc12` (stereo not shown): the Ki on MDM2 (setting [1]) is around 30 µM.

On to `COC(=O)C1(C)N=CN(CC2CC2)C1c1cc2ccc(Cl)cc2[nH]1` (stereo not shown), for which the Ki at MDM2 (setting [1]) was around 50 µM.

`COC(=O)C1(c2ccccc2)N=CN(Cc2cccc(N)c2)C1c1ccc(Cl)cc1` (stereo not shown): the Ki on MDM2 (setting [1]) and on MDM4 was around 5 µM throughout.

The molecule `COC(=O)C1(CCSC)N=CN(CC2CC2)C1c1ccc(Br)cc1` (stereo not shown) yielded an inhibition constant Ki on MDM2 (setting [1]) of around 20 µM.

Take `COC(=O)C12N=CN(CC3CC3)C1c1ccc(Cl)cc1C2C` (stereo not shown): at MDM2 (setting [1]), the Ki was around 2 µM.

`Clc1ccc(-c2ncn(CC3CC3)c2-c2cc3ccc(Cl)cc3[nH]2)cc1`: the GI50 in the test on HCT116 cells was around 40 µM.

The molecule `COC(=O)C1(c2ccccc2)N=CN(c2ccc(Cl)cc2)C1c1ccc(Cl)cc1` (stereo not shown) had a Ki on MDM2 (setting [1]) of around 5 µM.

In the test with HCT116 cells, `Clc1ccc(-c2ncn(CC3CC3)c2-c2ccc(Cl)cc2)cc1` gave a GI50 of around 10 µM. The molecule further came in with a Ki at MDM2 (imidazole scaffold, Table 2) of around 50 µM.

On MDM2 (setting [1]), `COC(=O)C1(CCSC)N=CN(CC2CC2)C1c1ccc(Cl)cc1` (stereo not shown) yielded an inhibitory constant (Ki) of around 10 µM.

In the case of `Clc1cccc(Cc2ncn(CC3CC3)c2-c2c[nH]c3ccccc23)c1`, in the test with HCT116 cells, the GI50 is around 25 µM.

In the test on HCT116 cells, `Clc1ccc2c(-c3c(-c4ccc(Cl)c(Cl)c4)ncn3CC3CC3)c[nH]c2c1` registered a GI50 of around 10 µM.

As for `COC(=O)C1(c2ccc(Cl)cc2)N=CN(CC2CC2)C1c1ccc(Cl)cc1` (stereo not shown) [drawing 67], the Ki at MDM2 (setting [1]) is around 40 µM.

On MDM2 (setting [1]), `COC(=O)C1(C)N=CN(CC2CC2)C1c1c[nH]c2ccccc12` (stereo not shown) came in with a Ki of around 50 µM.

Turning to `O=C(NCCCN1CCOCC1)C1(c2ccccc2)N=CN(CC2CC2)C1c1ccc(Cl)cc1` (stereo not shown), at MDM2 (setting [1]), affinity was put at a Ki of 1 µM.

For `COC(=O)C1(c2ccc(Cl)cc2)N=CN(CC2CC2)C1c1ccc(Cl)cc1` (stereo not shown) [drawing 44], at MDM2 (setting [1]), the Ki is around 5 µM.

`COC(=O)C1(c2ccccc2)N=CN(C(C)c2ccc(Cl)cc2)C1c1ccc(Cl)cc1` (stereo not shown): the Ki at MDM2 (setting [1]) is around 20 µM.

Take `C[C@H](c1ccc(Cl)cc1)n1cnc(-c2ccc(Cl)cc2)c1-c1cc2ccc(Cl)cc2[nH]1`: the GI50 in the test on HCT116 cells is around 20 µM.
